According to patent US10472358B2, “1H-pyrrolo[2,3-c]pyridin-7(6H)-ones and pyrazolo[3,4-c]pyridin-7(6H)-ones as inhibitors of BET proteins” (Incyte Corporation, priority 2014, dated 2019):

System: KMS.12.BM cells
Test: KMS.12.BM cell viability assay (Cell Titer-GLO, ATP quantitation)
Format: cell-based
Settings: KMS-12-BM, 72 h; human myeloma cells, 3 days, concentration required for 50% cell death
Outline: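 KMS.12.BM human myeloma cells (5000/well, RPMI with 10% FBS) were exposed to a compound concentration range for 3 days. Viable cells were measured by CellTiter-Glo ATP luminescence. IC50 is the concentration giving 50% cell death relative to untreated cells.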

Row | Structure (SMILES) | IC50 [nM]
1 | CN1C(=O)C(C)(C)Oc2c(-c3cn(C)c(=O)c4[nH]ccc34)cc(S(=O)(=O)N(C)C)cc21 [Example 69, N,N,2,2,4-pentamethyl-8-(6-methyl-7-oxo-6,7-dihydro-1H-pyrrolo[2,3-c]pyridin-4-yl)-3-oxo-3,4-dihydro-2H-1,4-benzoxazine-6-sulfonamide] | ≤ 1000
2 | CN(C)S(=O)(=O)c1cc2c(c(-c3cn(C)c(=O)c4[nH]ccc34)c1)OC(C)(C)C(=O)N2 [Example 70, N,N,2,2-tetramethyl-8-(6-methyl-7-oxo-6,7-dihydro-1H-pyrrolo[2,3-c]pyridin-4-yl)-3-oxo-3,4-dihydro-2H-1,4-benzoxazine-6-sulfonamide] | ≤ 1000
3 | CC(C)C1Oc2c(-c3cn(C)c(=O)c4[nH]ccc34)cc(S(=O)(=O)N(C)C)cc2N(C)C1=O (centres unmarked) [Example 71, 2-isopropyl-N,N,4-trimethyl-8-(6-methyl-7-oxo-6,7-dihydro-1H-pyrrolo[2,3-c]pyridin-4-yl)-3-oxo-3,4-dihydro-2H-1,4-benzoxazine-6-sulfonamide] | ≤ 1000
4 | Cn1cc(-c2cc(S(=O)(=O)N3CCCCC3)cc3c2OC(C)(C)C(=O)N3)c2cc[nH]c2c1=O [Example 72, 2,2-dimethyl-8-(6-methyl-7-oxo-6,7-dihydro-1H-pyrrolo[2,3-c]pyridin-4-yl)-6-(piperidin-1-ylsulfonyl)-2H-1,4-benzoxazin-3(4H)-one] | ≤ 1000
5 | CN1C(=O)C(C)(C)Oc2c(-c3cn(C)c(=O)c4[nH]ccc34)cc(S(=O)(=O)N3CCCCC3)cc21 [Example 73, 2,2,4-trimethyl-8-(6-methyl-7-oxo-6,7-dihydro-1H-pyrrolo[2,3-c]pyridin-4-yl)-6-(piperidin-1-ylsulfonyl)-2H-1,4-benzoxazin-3(4H)-one] | ≤ 1000
6 | CC(C)NS(=O)(=O)c1cc2c(c(-c3cn(C)c(=O)c4[nH]ccc34)c1)OC(C)(C)C(=O)N2 [Example 74, N-isopropyl-2,2-dimethyl-8-(6-methyl-7-oxo-6,7-dihydro-1H-pyrrolo[2,3-c]pyridin-4-yl)-3-oxo-3,4-dihydro-2H-1,4-benzoxazine-6-sulfonamide] | ≤ 1000
7 | CN1C(=O)C(C)(C)Oc2c(-c3cn(C)c(=O)c4[nH]ccc34)cc(S(C)(=O)=O)cc21 [Example 75, 2,2,4-trimethyl-8-(6-methyl-7-oxo-6,7-dihydro-1H-pyrrolo[2,3-c]pyridin-4-yl)-6-(methylsulfonyl)-2H-1,4-benzoxazin-3(4H)-one] | ≤ 1000
8 | CCS(=O)(=O)c1cc(-c2cn(C)c(=O)c3[nH]ccc23)c2c(c1)N(C)C(=O)C(C)(C)O2 [Example 76, 6-(ethylsulfonyl)-2,2,4-trimethyl-8-(6-methyl-7-oxo-6,7-dihydro-1H-pyrrolo[2,3-c]pyridin-4-yl)-2H-1,4-benzoxazin-3(4H)-one] | ≤ 1000
9 | CC(C)S(=O)(=O)c1cc(-c2cn(C)c(=O)c3[nH]ccc23)c2c(c1)N(C)C(=O)C(C)(C)O2 [Example 77, 6-(isopropylsulfonyl)-2,2,4-trimethyl-8-(6-methyl-7-oxo-6,7-dihydro-1H-pyrrolo[2,3-c]pyridin-4-yl)-2H-1,4-benzoxazin-3(4H)-one] | ≤ 1000
10 | CCS(=O)(=O)c1cc2c(c(-c3cn(C)c(=O)c4[nH]ccc34)c1)OC(C)(C)C(=O)N2 [Example 78, 6-(ethylsulfonyl)-2,2-dimethyl-8-(6-methyl-7-oxo-6,7-dihydro-1H-pyrrolo[2,3-c]pyridin-4-yl)-2H-1,4-benzoxazin-3(4H)-one] | ≤ 1000
11 | CC(C)S(=O)(=O)c1cc2c(c(-c3cn(C)c(=O)c4[nH]ccc34)c1)OC(C)(C)C(=O)N2 [Example 79, 6-(isopropylsulfonyl)-2,2-dimethyl-8-(6-methyl-7-oxo-6,7-dihydro-1H-pyrrolo[2,3-c]pyridin-4-yl)-2H-1,4-benzoxazin-3(4H)-one] | ≤ 1000
12 | CC(O)c1cc2c(c(-c3cn(C)c(=O)c4[nH]ccc34)c1)OC(C)(C)C(=O)N2 (centres unmarked) [Example 81, 6-(1-hydroxyethyl)-2,2-dimethyl-8-(6-methyl-7-oxo-6,7-dihydro-1H-pyrrolo[2,3-c]pyridin-4-yl)-2H-1,4-benzoxazin-3(4H)-one] | ≤ 1000
13 | CC(O)c1cc(-c2cn(C)c(=O)c3[nH]ccc23)c2c(c1)N(C)C(=O)C(C)(C)O2 (centres unmarked) [Example 83, 6-(1-hydroxyethyl)-2,2,4-trimethyl-8-(6-methyl-7-oxo-6,7-dihydro-1H-pyrrolo[2,3-c]pyridin-4-yl)-2H-1,4-benzoxazin-3(4H)-one] | ≤ 1000
14 | CC(C)C1Oc2c(cc(S(C)(=O)=O)cc2-c2cn(C)c(=O)c3[nH]ncc23)NC1=O (centres unmarked) [Example 84, 2-isopropyl-8-(6-methyl-7-oxo-6,7-dihydro-1H-pyrazolo[3,4-c]pyridin-4-yl)-6-(methylsulfonyl)-2H-1,4-benzoxazin-3(4H)-one] | ≤ 1000
